Reference: US10532065B2, “Bisphosphonic acid derivative and application for same” (NAGASAKI UNIVERSITY, priority 2014, dated 2020)
Where “and” joins values, the source holds several entries; their conditions need not be identical. Identical values can stand only once. Like-named read-outs stand apart in the source and are kept apart here.

What was measured:
Type in all cases: cell-based
U937 cells = test: U937 cell growth inhibition (direct antitumor action, CellTiterGlo); conditions: for IC50: U937 cell growth inhibition, 4 days culture; for direct antitumor activity (in words): U937 growth inhibition
Protocol: (§1) The direct antitumor action of bisphosphonic acid POM ester and bisphosphonic acid was studied by comparison using U937.
(§2) The direct antitumor action of various bisphosphonic acid POM esters was studied by comparison using U937 and EJ-1. The measurement was performed according to Experimental Example 2 and Experimental Example 4.

EJ-1 cells / γδ T cells = test: TNF-α production from γδ T cells stimulated by compound-pretreated EJ-1 cells (indirect antitumor action, ELISA); conditions: for EC50: EJ-1 pretreated 4 hr with compound, 16 hr with γδ T cells, TNF-α ELISA, read-out: TNF-α50; for TNF-α production induction activity (in words): EJ-1 pretreated with compound, γδ T cells
Protocol: The indirect antitumor action of bisphosphonic acid POM esters and bisphosphonic acids was studied by comparison using EJ-1. In principle, EJ-1 is treated with a compound, washed, and reacted with γδ T cells, and the cytotoxic ability is studied by comparison, by quantifying TNF-α produced by γδ T cells during cell disordering. TNF-α is generally used as an index of γδ T cell induction ability and/or proliferative capacity, and γδ T cells are considered to be induced and/or proliferated in proportion to the TNF-α amount (Journal of Immunology, 154, 5986-5994 (1995)). Since the produced TNF-α is what is called a tumor necrosis factor, it is considered to have an action to lower proliferation of cancer cells or induce cell death.
Thereto was added a solution (500 μl) of compounds 3, 5, 6, 7, which are bisphosphonic acid POM ester derivatives, obtained by serially diluting 10 mM stock solution 10-fold from 20 μM, or a solution (500 μl) of bisphosphonic acid 10, 12, 13, 14 compound obtained by serially diluting 10-fold from 200 μM, and the cells were suspended well. These conical tubes were stood at 37° C. for 4 hr, and the cells were washed 3 times with 5 ml of culture medium. To these cells was added 500 μl of medium, and the cells were suspended well. […] The cell culture medium was suspended well, and the plate was centrifuged at 1,700 rpm, 4° C. for 2 min and the culture supernatant (150 μl) was taken and placed in another round-bottomed 96 well plate. The plate was frozen at −80° C. overnight, left standing at room temperature for 1 hr, stirred well and 100 μl thereof was subjected to ELISA of TNF-α. The content of TNF-α was calculated from the analytical curve of TNF-α. These were performed in triplicate, and a graph showing bisphosphonic acid POM ester derivative and the corresponding bisphosphonic acid as one pair was plotted. […] The results of bisphosphonic acid POM ester derivative are shown by -●-, and the results of bisphosphonic acid are shown by -◯-.
The indirect antitumor action of bisphosphonic acid POM esters and bisphosphonic acids was quantitatively studied by comparison using EJ-1. […] Thereto was added a solution (500 μl) of a bisphosphonic acid POM ester derivative obtained by serially diluting 10 mM stock solution 10-fold from 20 μM, or a bisphosphonic acid solution (500 μl) serially diluted 10-fold from 200 μM was added, and the cells were suspended well. These conical tubes were stood at 37° C. for 4 hr, and the cells were washed 3 times with 5 ml of culture medium. To these cells was added 500 μl of medium, and the cells were suspended well. […] The cell culture medium was suspended well, and the plate was centrifuged at 1,700 rpm, 4° C. for 2 min and the culture supernatant (150 μl) was taken and placed in another round-bottomed 96 well plate. The plate was frozen at −80° C. overnight, left standing at room temperature for 1 hr, stirred well and 100 μl thereof was subjected to ELISA of TNF-α. The content of TNF-α was calculated from the analytical curve of TNF-α. These were performed in triplicate, and a half of the concentration of compounds 1-7, which are bisphosphonic acid POM ester derivatives, and compounds 8-14, which are bisphosphonic acids, necessary for producing the maximum amount of TNF-α from γδ T cells was calculated as TNF-α50, and summarized in Table 6.
Therefore, the TNF-α50 value of various bisphosphonic acid POM ester derivatives was calculated. […] Thereto was added a solution (500 μl) of compounds 1-7 and 15-39, which are bisphosphonic acid POM ester derivatives, and compound 42, which is other bisphosphonic acid ester derivative, obtained by serially diluting 10 mM stock solution 10-fold from 20 μM, and the cells were suspended well. These conical tubes were stood at 37° C. for 4 hr, and the cells were washed 3 times with 5 ml of culture medium. To these cells was added 500 μl of medium, and the cells were suspended well. […]

EJ-1 cells = test: EJ-1 cell growth inhibition (direct antitumor action, CellTiterGlo); conditions: for IC50: EJ-1 (bladder cancer) growth inhibition, 4 days culture; for direct antitumor activity (in words): EJ-1 growth inhibition
Protocol: as §1
(§3) The direct antitumor action of bisphosphonic acid POM ester derivatives and bisphosphonic acids was studied by comparison using EJ-1. It was performed in the same manner as in Experimental Example 1 except that EJ-1 was used as the cell to be used. For recovery of the cells, a conventional EDTA trypsin treatment was performed.
as §3, with “POM esters” for “POM ester derivatives”, “Example 2” for “Example 1”
as §2

Compound	IC50 (U937 cells)	EC50 (EJ-1 cells / γδ T cells)	IC50 (EJ-1 cells)	direct antitumor activity (in words) (U937 cells)	direct antitumor activity (in words) (EJ-1 cells)	TNF-α production induction activity (in words) (EJ-1 cells / γδ T cells)	IC50 (U937 cells; Homo sapiens, U-937, 96 h)	EC50 (EJ-1 cells / γδ T cells; EJ1)	IC50 (EJ-1 cells; EJ1, 96 h)
CN(CC(P(=O)(OCOC(=O)C(C)(C)C)OCOC(=O)C(C)(C)C)P(=O)(OCOC(=O)C(C)(C)C)OCOC(=O)C(C)(C)C)c1ccccn1 [Compound 1, tetrakispivaloyloxymethyl 2-(methylpyridin-2-ylamino)ethylidene-1,1-bisphosphonate]	5.3 µM	0.55 µM	11 µM						
CC(C)(C)C(=O)OCOP(=O)(OCOC(=O)C(C)(C)C)C(CNc1ncccc1Br)P(=O)(OCOC(=O)C(C)(C)C)OCOC(=O)C(C)(C)C [Compound 2, tetrakispivaloyloxymethyl 2-(3-bromopyridin-2-ylamino)ethylidene-1,1-bisphosphonate]	0.68 µM	4.5 µM	2.3 µM	high activity	high activity				
Cc1ccc(NCC(P(=O)(OCOC(=O)C(C)(C)C)OCOC(=O)C(C)(C)C)P(=O)(OCOC(=O)C(C)(C)C)OCOC(=O)C(C)(C)C)nc1 [Compound 3, tetrakispivaloyloxymethyl 2-(5-methylpyridin-2-ylamino)ethylidene-1,1-bisphosphonate]	5.6 µM	0.48 µM	5.4 µM						
CC(C)(C)C(=O)OCOP(=O)(OCOC(=O)C(C)(C)C)C(CNc1ccc(Br)cn1)P(=O)(OCOC(=O)C(C)(C)C)OCOC(=O)C(C)(C)C [Compound 4, tetrakispivaloyloxymethyl 2-(5-bromopyridin-2-ylamino)ethylidene-1,1-bisphosphonate]	3.6 µM	0.7 µM	7.8 µM						
CC(C)(C)C(=O)OCOP(=O)(OCOC(=O)C(C)(C)C)C(CNc1ccc(F)cn1)P(=O)(OCOC(=O)C(C)(C)C)OCOC(=O)C(C)(C)C [Compound 5, tetrakispivaloyloxymethyl 2-(5-fluoropyridin-2-ylamino)ethylidene-1,1-bisphosphonate]	5.3 µM	0.069 µM	4.8 µM and 5.7 µM			high activity			
CC(C)(C)C(=O)OCOP(=O)(OCOC(=O)C(C)(C)C)C(CNc1ncccn1)P(=O)(OCOC(=O)C(C)(C)C)OCOC(=O)C(C)(C)C [Compound 6, tetrakispivaloyloxymethyl 2-(pyrimidin-2-ylamino)ethylidene-1,1-bisphosphonate]	2.4 µM	0.08 µM	0.09 µM	high activity	high activity	high activity			
Cc1cccnc1NCC(P(=O)(O)O)P(=O)(O)O [Compound 8, 2-(3-methylpyridin-2-ylamino)ethylidene-1,1-bisphosphonic Acid, reference compound]							980 µM	> 100 µM	13 µM
O=P(O)(O)C(CNc1ncccc1Br)P(=O)(O)O [Compound 9, 2-(3-bromopyridin-2-ylamino)ethylidene-1,1-bisphosphonic Acid, reference compound]							1100 µM	> 100 µM	970 µM
Cc1ccc(NCC(P(=O)(O)O)P(=O)(O)O)nc1 [Compound 10, 2-(methylpyridin-2-ylamino)ethylidene-1,1-bisphosphonic Acid, reference compound]							29 µM	48 µM	7.9 µM
O=P(O)(O)C(CNc1ccc(Br)cn1)P(=O)(O)O [Compound 11, 2-(5-bromopyridin-2-ylamino)ethylidene-1,1-bisphosphonic Acid, reference compound]							200 µM	> 100 µM	290 µM
O=P(O)(O)C(CNc1ccc(F)cn1)P(=O)(O)O [Compound 12, 2-(5-fluoropyridin-2-ylamino)ethylidene-1,1-bisphosphonic Acid, reference compound]							68 µM	49 µM	260 µM
O=P(O)(O)C(CNc1ncccn1)P(=O)(O)O [Compound 13, 2-(pyrimidin-2-ylamino)ethylidene-1,1-bisphosphonic Acid, reference compound]							150 µM	48 µM	23 µM
CC(C)(C)C(=O)OCOP(=O)(OCOC(=O)C(C)(C)C)C(CNc1ncccc1OCc1ccccc1)P(=O)(OCOC(=O)C(C)(C)C)OCOC(=O)C(C)(C)C [Compound 15, tetrakispivaloyloxymethyl 2-(3-benzyloxypyridin-2-ylamino)ethylidene-1,1-bisphosphonate]	7.1 µM	> 10 µM	16 µM						
Cc1ccnc(NCC(P(=O)(OCOC(=O)C(C)(C)C)OCOC(=O)C(C)(C)C)P(=O)(OCOC(=O)C(C)(C)C)OCOC(=O)C(C)(C)C)c1 [Compound 16, tetrakispivaloyloxymethyl 2-(4-methylpyridin-2-ylamino)ethylidene-1,1-bisphosphonate]	6.8 µM	5.1 µM	15 µM						
CC(C)(C)C(=O)OCOP(=O)(OCOC(=O)C(C)(C)C)C(CNc1ccc(C(F)(F)F)cn1)P(=O)(OCOC(=O)C(C)(C)C)OCOC(=O)C(C)(C)C [Compound 17, tetrakispivaloyloxymethyl 2-(5-trifluoromethylpyridin-2-ylamino)ethylidene-1,1-bisphosphonate]	2.6 µM	> 10 µM	4.3 µM						
CC(C)(C)C(=O)OCOP(=O)(OCOC(=O)C(C)(C)C)C(CNc1ccc(Cl)cn1)P(=O)(OCOC(=O)C(C)(C)C)OCOC(=O)C(C)(C)C [Compound 18, tetrakispivaloyloxymethyl 2-(5-chloropyridin-2-ylamino)ethylidene-1,1-bisphosphonate]	3.3 µM	0.38 µM	4.8 µM						
CC(C)(C)C(=O)OCOP(=O)(OCOC(=O)C(C)(C)C)C(CNc1ccc(-c2ccccc2)cn1)P(=O)(OCOC(=O)C(C)(C)C)OCOC(=O)C(C)(C)C [Compound 19, tetrakispivaloyloxymethyl 2-(5-phenylpyridin-2-ylamino)ethylidene-1,1-bisphosphonate]	6.7 µM	> 10 µM	9.5 µM						
Cc1cccc(NCC(P(=O)(OCOC(=O)C(C)(C)C)OCOC(=O)C(C)(C)C)P(=O)(OCOC(=O)C(C)(C)C)OCOC(=O)C(C)(C)C)n1 [Compound 20, tetrakispivaloyloxymethyl 2-(6-methylpyridin-2-ylamino)ethylidene-1,1-bisphosphonate]	6.9 µM	3.7 µM	16 µM						
CC(C)(C)C(=O)OCOP(=O)(OCOC(=O)C(C)(C)C)C(CNc1cccc(Br)n1)P(=O)(OCOC(=O)C(C)(C)C)OCOC(=O)C(C)(C)C [Compound 21, tetrakispivaloyloxymethyl 2-(6-bromopyridin-2-ylamino)ethylidene-1,1-bisphosphonate]	6.1 µM	> 10 µM	9 µM						
